Reference: ChEMBL document CHEMBL4138123, “Design, synthesis and biological evaluation of novel pyrazolochalcones as potential modulators of PI3K/Akt/mTOR pathway and inducers of apoptosis in breast cancer cells” (Eur J Med Chem, 2017)

What was measured:
Type in all cases: functional
ACHN [1] = test: Cytotoxicity against human ACHN cells assessed as growth inhibition after 48 hrs by sulforhodamine B assay
M14 [2] = test: Cytotoxicity against human M14 cells assessed as cell growth at 0.01 uM after 48 hrs by sulforhodamine B assay relative to control; settings: M14, 48 h, read-out: Activity
COLO 205 [3] = test: Cytotoxicity against human COLO205 cells assessed as cell growth at 100 uM after 48 hrs by sulforhodamine B assay relative to control; settings: COLO 205, 48 h, read-out: Activity
UACC-62 = test: Cytotoxicity against human UACC62 cells assessed as cell growth at 0.01 uM after 48 hrs by sulforhodamine B assay relative to control; settings: UACC-62, 48 h, read-out: Activity
TK-10 [4] = test: Cytotoxicity against human TK10 cells assessed as cell growth at 100 uM after 48 hrs by sulforhodamine B assay relative to control; settings: TK-10, 48 h, read-out: Activity
OVCAR-4 [5] = test: Cytotoxicity against human OVCAR4 cells assessed as cell growth at 1 uM after 48 hrs by sulforhodamine B assay relative to control; settings: OVCAR-4, 48 h, read-out: Activity
SF-539 = test: Cytotoxicity against human SF539 cells assessed as cell growth at 0.01 uM after 48 hrs by sulforhodamine B assay relative to control; settings: SF-539, 48 h, read-out: Activity
COLO 205 [6] = test: Cytotoxicity against human COLO205 cells assessed as cell growth at 0.01 uM after 48 hrs by sulforhodamine B assay relative to control; settings: COLO 205, 48 h, read-out: Activity
786-0 [7] = test: Cytotoxicity against human 786-0 cells assessed as cell growth at 0.01 uM after 48 hrs by sulforhodamine B assay relative to control; settings: 786-0, 48 h, read-out: Activity
MCF7 = test: Cytotoxicity against human MCF7 cells assessed as cell growth at 0.1 uM after 48 hrs by sulforhodamine B assay relative to control; settings: MCF7, 48 h, read-out: Activity
SR = test: Cytotoxicity against human SR cells assessed as cell growth at 10 uM after 48 hrs by sulforhodamine B assay relative to control; settings: read-out: Activity
SK-MEL-28 [8] = test: Cytotoxicity against human SK-MEL-28 cells assessed as cell growth at 0.1 uM after 48 hrs by sulforhodamine B assay relative to control; settings: SK-MEL-28, 48 h, read-out: Activity
KM12 = test: Cytotoxicity against human KM12 cells assessed as cell growth at 0.1 uM after 48 hrs by sulforhodamine B assay relative to control; settings: KM12, 48 h, read-out: Activity
MOLT-4 [9] = test: Cytotoxicity against human MOLT4 cells assessed as cell growth at 10 uM after 48 hrs by sulforhodamine B assay relative to control; settings: MOLT-4, 48 h, read-out: Activity
IGROV-1 = test: Cytotoxicity against human IGROV1 cells assessed as growth inhibition after 48 hrs by sulforhodamine B assay; settings: IGROV-1, 48 h
HCC 2998 = test: Cytotoxicity against human HCC2998 cells assessed as cell growth at 10 uM after 48 hrs by sulforhodamine B assay relative to control; settings: HCC 2998, 48 h, read-out: Activity
HT-29 = test: Cytotoxicity against human HT-29 cells assessed as cell growth at 0.1 uM after 48 hrs by sulforhodamine B assay relative to control; settings: HT-29, 48 h, read-out: Activity
SK-MEL-5 [10] = test: Cytotoxicity against human SK-MEL-5 cells assessed as cell growth at 0.01 uM after 48 hrs by sulforhodamine B assay relative to control; settings: SK-MEL-5, 48 h, read-out: Activity
PC-3 = test: Cytotoxicity against human PC3 cells assessed as cell growth at 0.01 uM after 48 hrs by sulforhodamine B assay relative to control; settings: PC-3, 48 h, read-out: Activity
OVCAR-8 = test: Cytotoxicity against human OVCAR8 cells assessed as cell growth at 10 uM after 48 hrs by sulforhodamine B assay relative to control; settings: OVCAR-8, 48 h, read-out: Activity
TK-10 [11] = test: Cytotoxicity against human TK10 cells assessed as cell growth at 0.1 uM after 48 hrs by sulforhodamine B assay relative to control; settings: TK-10, 48 h, read-out: Activity
ACHN [12] = test: Cytotoxicity against human ACHN cells assessed as cell growth at 1 uM after 48 hrs by sulforhodamine B assay relative to control; settings: read-out: Activity
OVCAR-3 [13] = test: Cytotoxicity against human OVCAR3 cells assessed as cell growth at 100 uM after 48 hrs by sulforhodamine B assay relative to control; settings: OVCAR-3, 48 h, read-out: Activity
A549 = test: Cytotoxicity against human A549/ATCC cells assessed as cell growth at 1 uM after 48 hrs by sulforhodamine B assay relative to control; settings: A549, 48 h, read-out: Activity
Hs-578T [14] = test: Cytotoxicity against human Hs 578T cells assessed as cell growth at 0.01 uM after 48 hrs by sulforhodamine B assay relative to control; settings: read-out: Activity
786-0 [15] = test: Cytotoxicity against human 786-0 cells assessed as cell growth at 100 uM after 48 hrs by sulforhodamine B assay relative to control; settings: 786-0, 48 h, read-out: Activity
SK-MEL-28 [16] = test: Cytotoxicity against human SK-MEL-28 cells assessed as growth inhibition after 48 hrs by sulforhodamine B assay; settings: SK-MEL-28, 48 h
OVCAR-5 [17] = test: Cytotoxicity against human OVCAR5 cells assessed as cell growth at 10 uM after 48 hrs by sulforhodamine B assay relative to control; settings: OVCAR-5, 48 h, read-out: Activity
SK-MEL-5 [18] = test: Cytotoxicity against human SK-MEL-5 cells assessed as cell growth at 0.1 uM after 48 hrs by sulforhodamine B assay relative to control; settings: SK-MEL-5, 48 h, read-out: Activity
MOLT-4 [19] = test: Cytotoxicity against human MOLT4 cells assessed as cell growth at 0.01 uM after 48 hrs by sulforhodamine B assay relative to control; settings: MOLT-4, 48 h, read-out: Activity
OVCAR-3 [20] = test: Cytotoxicity against human OVCAR3 cells assessed as cell growth at 10 uM after 48 hrs by sulforhodamine B assay relative to control; settings: OVCAR-3, 48 h, read-out: Activity
Hs-578T [21] = test: Cytotoxicity against human Hs 578T cells assessed as cell growth at 10 uM after 48 hrs by sulforhodamine B assay relative to control; settings: read-out: Activity
T47D = test: Cytotoxicity against human T47D cells assessed as cell growth at 100 uM after 48 hrs by sulforhodamine B assay relative to control; settings: read-out: Activity
M14 [22] = test: Cytotoxicity against human M14 cells assessed as cell growth at 0.1 uM after 48 hrs by sulforhodamine B assay relative to control; settings: M14, 48 h, read-out: Activity
OVCAR-5 [23] = test: Cytotoxicity against human OVCAR5 cells assessed as growth inhibition after 48 hrs by sulforhodamine B assay; settings: OVCAR-5, 48 h
OVCAR-4 [24] = test: Cytotoxicity against human OVCAR4 cells assessed as cell growth at 0.1 uM after 48 hrs by sulforhodamine B assay relative to control; settings: OVCAR-4, 48 h, read-out: Activity
DU-145 = test: Cytotoxicity against human DU145 cells assessed as growth inhibition after 48 hrs by sulforhodamine B assay; settings: DU-145, 48 h

COc1cc(C(=O)/C=C/c2cc(-c3cc(OC)c(OC)c(OC)c3)n[nH]2)cc(OC)c1OC
LC50 (ACHN [1]): 5.57 µM | TGI (ACHN [1]): 3.01 µM | growth at 0.01 µM (M14 [2]): 96% | growth at 100 µM (COLO 205 [3]): -100% | growth at 0.01 µM (UACC-62): 97% | growth at 100 µM (TK-10 [4]): -99% | growth at 1 µM (OVCAR-4 [5]): 79% | growth at 0.01 µM (SF-539): 92% | growth at 0.01 µM (COLO 205 [6]): 103% | growth at 0.01 µM (786-0 [7]): 101% | growth at 0.1 µM (MCF7): 95% | growth at 10 µM (SR): 12% | growth at 0.1 µM (SK-MEL-28 [8]): 105% | growth at 0.1 µM (KM12): 103% | growth at 10 µM (MOLT-4 [9]): -4% | LC50 (IGROV-1): 33.1 µM | TGI (IGROV-1): 10.2 µM | growth at 10 µM (HCC 2998): -87% | growth at 0.1 µM (HT-29): 102% | growth at 0.01 µM (SK-MEL-5 [10]): 96% | growth at 0.01 µM (PC-3): 95% | growth at 10 µM (OVCAR-8): -76% | growth at 0.1 µM (TK-10 [11]): 109% | growth at 1 µM (ACHN [12]): 89% | growth at 100 µM (OVCAR-3 [13]): -98% | growth at 1 µM (A549): 84% | growth at 0.01 µM (Hs-578T [14]): 93% | growth at 100 µM (786-0 [15]): -98% | LC50 (SK-MEL-28 [16]): 6.07 µM | TGI (SK-MEL-28 [16]): 3.33 µM | growth at 10 µM (OVCAR-5 [17]): -91% | growth at 0.1 µM (SK-MEL-5 [18]): 95% | growth at 0.01 µM (MOLT-4 [19]): 104% | growth at 10 µM (OVCAR-3 [20]): -96% | growth at 10 µM (Hs-578T [21]): 10% | growth at 100 µM (T47D): -92% | growth at 0.1 µM (M14 [22]): 109% | LC50 (OVCAR-5 [23]): 5.92 µM | TGI (OVCAR-5 [23]): 3.12 µM | growth at 0.1 µM (OVCAR-4 [24]): 95%

COc1ccc(C(=O)/C=C/c2cc(-c3ccc(OC)c(OC)c3)n[nH]2)cc1OC
GI50 (ACHN [1]): 1.59 µM | TGI (ACHN [1]): 3.83 µM | growth at 0.01 µM (M14 [2]): 89% | growth at 100 µM (COLO 205 [3]): -70% | growth at 0.01 µM (UACC-62): 95% | growth at 100 µM (TK-10 [4]): -12% | growth at 1 µM (OVCAR-4 [5]): 72% | growth at 0.01 µM (SF-539): 89% | growth at 0.01 µM (COLO 205 [6]): 90% | growth at 0.01 µM (786-0 [7]): 92% | growth at 0.1 µM (MCF7): 94% | growth at 0.1 µM (SK-MEL-28 [8]): 95% | growth at 0.1 µM (KM12): 100% | growth at 10 µM (MOLT-4 [9]): 5% | GI50 (IGROV-1): 3.13 µM | TGI (IGROV-1): 53.8 µM | growth at 10 µM (HCC 2998): -94% | growth at 0.1 µM (HT-29): 96% | GI50 (DU-145): 1.64 µM | TGI (DU-145): 4.8 µM | CC50 (DU-145; read-out: LC50 (the source's name)): 17.4 µM | growth at 0.01 µM (SK-MEL-5 [10]): 96% | growth at 0.01 µM (PC-3): 99% | growth at 10 µM (OVCAR-8): 8% | growth at 0.1 µM (TK-10 [11]): 96% | growth at 1 µM (ACHN [12]): 76% | growth at 100 µM (OVCAR-3 [13]): -64% | growth at 1 µM (A549): 77% | growth at 0.01 µM (Hs-578T [14]): 93% | growth at 100 µM (786-0 [15]): -32% | GI50 (SK-MEL-28 [16]): 1.82 µM | TGI (SK-MEL-28 [16]): 4.82 µM | growth at 10 µM (OVCAR-5 [17]): -30% | growth at 0.1 µM (SK-MEL-5 [18]): 96% | growth at 0.01 µM (MOLT-4 [19]): 103% | growth at 10 µM (OVCAR-3 [20]): -43% | growth at 10 µM (Hs-578T [21]): 23% | growth at 100 µM (T47D): -9% | growth at 0.1 µM (M14 [22]): 94% | GI50 (OVCAR-5 [23]): 1.76 µM | TGI (OVCAR-5 [23]): 5.24 µM | growth at 0.1 µM (OVCAR-4 [24]): 86%
